# “Also recorded” adds a separate entry of the source.
# What was measured:
# [1] = system: panel of 24 biotinylated chemokines; experiment: Phage-display screen of HD2 NNK saturation mutagenesis library; format: binding, human; settings: HD2 saturation mutants; chemokines on streptavidin beads; UniProt entry names
# Excerpt: (§1) FIG. 7. Exemplar results from phage display screens using saturation mutagenesis. A phage-display library was constructed using the HD2 sequence, replacing each residue encoding codon with the degenerate sequence NNK. The 16 degenerate sequences (which also encoded the parental HD2 sequence) were pooled and cloned into display phage. […] Exemplar peptides were selected such that log 2 E for at least one chemokine was greater than 5, and log 2 E for binding to control (CO5, was less than zero). […] The fold enrichment of parental HD2 is also indicated.
# as §1, with “A” for “FIG. 7. Exemplar results from phage display screens using saturation mutagenesis. A”
# A molecular level understanding of binding mechanism is needed for development of peptides as therapeutics and is usually obtained from structural analyses. As HD2 binds many chemokines this becomes a challenging task, and we explored if we could elucidate this using phage display mutagenesis. The role of each residue in HD2 for binding was examined in phage-display. A library of HD2 mutations that had NNK substituted at each residue and performed phage-display selection against a panel of 24 biotinylated chemokines, in parallel, as described in Example 7. This strategy allowed us to evaluate the impact not only of Ala substitutions, but also conservative, hydrophilic and hydrophobic substitutions, and compare with binding of parental HD2 which is also included in the library. Ala substitution removes side-chains beyond the β-carbon and can be used to infer the role of side-chain functional groups without affecting conformational flexibility of the backbone. […] These residues are within the two motifs identified previously. Other notable residues identified were Y8 and P10. We next judged the impact of Ala mutation by calculating the change in log 2 E (Δlog 2 E) between the mutant and parental HD2. A positive value of Δlog 2 E indicates increased binding, and a negative value decreased binding compared to parental HD2. […] As may be seen, the log 2 E for the parental HD2 was ~0 in these analyses indicating lack of enrichment.
# Oligonucleotide pools were amplified using primers: oligo_fwd: 5′-[…] and oligo_rev2: 5′-tcgtcaccctcggcgcctcctcoggatcctccacc. Oligonucleotide PCR products were cloned into plasmid prSTOP4Nsi using NEB Builder HiFi Assembly following instructions of the manufacturer. The vector pool was used to transform electrocompetent Invitrogen ElectroMAX™ DH5α-E™ cells. Plasmid DNA was harvested by MaxiPrep (GeneJet Plasmid Maxiprep Kit) and was transformed into SS320 phage display electrocompetent cells (Lucigen), following the manufacturer's protocol, resuspended in 950 μL recovery media for each electroporation, transferred to 50 mL Falcon tubes, 100 μL 1011 CFU/mL M13KO7 helper phage (NEB) added and shaken at 37° C., 220 RPM for 1 h. 1 mL recovery culture was added to 2YT medium containing +50 ug/mL carbenicillin and 25 ug/mL kanamycin, and grown overnight at 37C, 220 rpm. Phage was precipitated from the culture supernatant by adding 22.5 mL of supernatant to 4.5 mL 20% PEG 8000/2.5 M NaCl, incubating on ice for 30 min, and centrifuging at 10,000 RPM, 4° C. for 10 min, and resuspending phage in 1 ml of PBT, followed by centrifugation at 13000 RPM, 4° C., for 10 min. […]
# CCL3 = biological target: T1, CCL3 (Homo sapiens, UniProt P10147); experiment: CCL3-induced THP-1 cell migration, transwell assay; format: cell-based; settings: HD2 mutant peptides 10 μM, chemokine at EC80
# T1 construct: purchased Peprotech
# T1 sequence (P10147 24-92): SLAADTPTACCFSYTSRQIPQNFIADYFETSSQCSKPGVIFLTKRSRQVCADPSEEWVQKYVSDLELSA
# Procedure: FIG. 2. […] BK1.2 is described in (Darlot, 2020). […] Chemokines used are indicated by the name, followed in parenthesis by the supplier code (P in supplier code indicates Peprotech). […] All experiments were performed at EC80 doses of indicated chemokine. Data are shown as box-whisker plots of three technical and three biological replicates. Statistically significant differences (compared to control, indicated by #), using Dunnett's test with correction for multiple comparisons, are indicated by asterisks: ****=P≤0.0001, ***=P≤0.001, **=P≤0.01, *=P≤0.05.
# Briefly, cell migration assays use THP1 cells (human monocyte) and primary human buffy coat white cells (consisting of neutrophil granulocytes, monocytes, and lymphocytes), and activated T-cells. […] Assays are performed in 96-well Boyden chambers, and migrated cells counted and characterized using and ATTUNE Flow Cytometer as described. […]
# The J:CXCR1 cell line was generated by transfecting Jurkat cells by electroporation with PvuI-linearized plasmid D1398 and selecting with blasticidin (Sigma-Aldrich, Cat #203350, 5 g/mL). […] Cell counts were determined by Attune NxT Flow Cytometer Plate Reader (ThermoFisher), based on cell size parameters FSC-H/SSC-H. Experiments were performed in 3 technical and 3 biological replicates. […] Statistical significances between control experimental groups was evaluated using Dunnett's test. […]
sequence,measurement,setting,value
EEDDYTAYAPLWCYFT [HD2_W12],Chemokines Bound log2E 1-5,[1],"CCL1, CCL15, CCL17, CCL18,; also recorded: CCL19, CCL20, CCL22, CCL25,; also recorded: CCL28, CCL4, X3CL1, SDF1,; also recorded: CXL14"
same,Chemokines Bound log2E > 5,[1],CCL3
same,chemotaxis compared with the parental HD2 peptide,CCL3,significant reduction in chemotaxis

# Source: patent US20260234188A1, “CHEMOKINE-BINDING PEPTIDES” (Oxford University Innovation Limited, priority 2022, published 2026)
